Test results reported in patent US20090220528A1, “Stimulation of Toll-Like Receptors on T Cells” (THE TRUSTEES OF THE UNIVERISTY OF PENNSYLVANIA CNETER FOR …, priority 2005, published 2009).

Legend:
Assay type in all cases: cell-based, mouse
[1] = system: MyD88-/- activated CD4+ T cells; test: TLR ligand-mediated survival of MyD88-/- activated CD4+ T cells; conditions: FIG. 4B
From the text: BALB/c mice were purchased from The Jackson Laboratory (Bar Harbor, Me.). DO11.10 mice on the BALB/c background have been described previously (Hsieh et al., 1992, Proc. Natl. Acad. Sci. USA 89:6065). MyD88^−/− mice have been described previously (Adachi et al., 1998, Immunity 9:143). For these experiments MyD88^+/− mice were backcrossed at least five times onto a C57BL/6 background and intercrossed to generate MyD88^−/− and MyD88^+/+ wild-type control littermates.
Following activation, purified CD4^+ T cells were washed twice in PBS and replated in culture medium at 10^6/ml. Cultures were left untreated or treated with either TLR ligands and/or inhibitors for indicated times and concentrations. Following incubation, CD4^+ T cells were washed twice in PBS/2% FBS and stained with CD4-allophycocyanin monoclonal antibody and 7-aminoactinomycin D (7-AAD; BD PharMingen) or annexin (BD PharMingen) and survival was assessed by exclusion of either of these two stains. […] Live CD4^+ T cell counts were calculated by taking the ratio of the number of CD4^+CD45.1^−7-ADD^− events collected to the number CD45.1^+ events collected and multiplying by 50,000. Proliferation was measured by CFSE dye dilution as previously described (Wells et al., 1997 J. Clin. Invest. 100:3173). […]

CD4+ T cells = test: TLR ligation at the time of T cell stimulation: proliferation, IL-2 production and signaling
Method: The present experiments were designed to assess the effects of TLR ligation at the time of T cell stimulation, and analysis of signaling pathways which mediate them.
Similar results were observed when anti-CD28 was used in combination with anti-CD3 (FIGS. 7B-7D). IL-2 production from treat T cells were also measured (FIG. 8). These effects were additive to those of anti-CD28 stimulation.
This led to the examination of other signaling pathways downstream of TLR9. For example, experiments were designed to assess the role of phosphatidyl inositol 3 kinase (PI3K) in TLR9 activation because of the ability of TLR ligation to synergize with TCR stimulation for IL-2 production and proliferation was reminiscent of CD28 functions. PI3K is a lipid kinase which catalyzes the phosphorylation of phosphatidyl inositol bis 4, 5, phosphate (PIP2) into phosphatidyl inositol tris 3, 4, 5, phosphate (PIP3). PIP3 is an important cell signaling molecule, activating protein kinase B/Akt, and other downstream pathways. In T cells, PI3K activation is a major known downstream signaling pathway of the T cell costimulatory receptor CD28.

[2] = system: Foxp3+GFP+ and Foxp3-GFP- T cells; test: Foxp3 expression (GFP reporter) and IL-6 production in Foxp3+ and Foxp3- T cells under stimulation
Method: In order to study the effect of stimulation conditions on Foxp3 expression, T cells were from mice having a reporter construct introduced into the FOXP3 locus (Betteli et al., 2006, Nature 441:235-238) by sorting cells based on the GFP-reporter construct. The reporter construct expresses both Fox3p and the fluorescent protein GFP. T cells that are Foxp3^− (i.e. GFP^−) and T cells that are Foxp3^+ (i.e. GFP^+) were isolated (FIG. 21A). Foxp3 expression was then assessed under different stimulation conditions, […]

In the case of poly(I:C), the “enhanced survival response in MyD88-/- activated CD4+ T cells” value [1] is reported as “left intact”, the “IL-2 protein production with T cell stimulation” value (CD4+ T cells; FIG. 8) is reported as “able to synergize” and the “TRAF6 requirement of proliferative effects” value (CD4+ T cells; FIG. 9) is reported as “did not require TRAF6”. For the same substance, the “T cell proliferation with T cell stimulation” value (CD4+ T cells; with sub-mitogenic anti-CD3, with or without anti-CD28 (FIG. 7)) was “able to synergize”, the “Foxp3 expression in Foxp3+GFP+ cells (natural Tregs)” value ([2]; activated by anti-CD3 plus TLR ligand (FIG. 21B)) was “maintained Foxp3 expression” and the “Foxp3 expression in Foxp3-GFP- cells (non-regulatory T cells)” value ([2]; stimulation with anti-CD3 and anti-CD28 antibodies and TGF-b, with additions (FIG. 22)) was “augmented”.
